Test results: patent publication US5155103A, “Methods of using new thieno-triazole-1,4-diazepino-2-carboxylic acid amides” (Boehringer Ingelheim GmbH, priority 1985, dated 1992)
Read-outs that look alike come from different tables or passages of the source.

Test system: human thrombocytes (PAF-induced aggregation)
Assay: inhibition of PAF-induced aggregation of human thrombocytes in vitro
Type: cell-based
Method: In order to determine the PAF-antagonistic effect of substances the PAF-induced aggregation of human thrombocytes in vitro is used. To obtain thrombocyte-rich plasma (TRP), blood is taken from an uncongested vein using a plastic syringe containing 3.8% sodium citrate solution. The ratio of sodium citrate solution to blood is 1:9. After careful mixing, the citrated blood is centrifuged for 20 minutes (150×g, 1200 rpm). The thrombocyte aggregation is measured using the method developed by Born and Cross (G. V. R. Born and M. J. Cross, J. Physiol. 168, 178 (1963)), PAF being added to the TRP with constant stirring to initiate aggregation.
The test substance is added 2 to 3 minutes before the aggregation is induced in a volume of 10 μl. The solvent used is either distilled water, ethanol and/or dimethylsulfoxide. Control mixtures are given corresponding volumes of these solvents. After the initial absorption has been recorded (2 to 3 minutes) aggregation is induced with PAF (5×10^-8 M).
To assess the effects of substances, the maximum of the first aggregation wave is used. The maximum absorption rate induced by PAF (=maximum aggregation×100%) is tested simultaneously in a parallel mixture (=control mixture in one of the channels of the 2-channel aggregometer) with each test mixture (second channel) and used as the 100% value.
The aggregation value achieved under the influence of the test substance is given as 100%.
Each test substance is investigated at concentrations of 10^-3 to 10^-8 M with a random test scope of n=4 for any inhibiting effect on the PAF-induced thrombocyte aggregation. Then a concentration-activity curve is drawn up using 3 concentrations and the IC50 is determined (concentration at 50% inhibition of aggregation).

[1] = Table B, PAF 5×10^-8 M, human thrombocyte-rich plasma, read-out: PAF-Antag. IC50
[2] = Homo sapiens, unit inferred, read-out: IC50

Row | SMILES | IC50 [1] [nM] | IC50 [2] [nM]
1 | Cc1nnc2n1-c1sc(CCCC(=O)N3CCOCC3)cc1C(c1ccccc1Cl)=NC2 [Example 7, 3-[4-(2-Chlorophenyl)-9-methyl-6H-thieno[3,2-f][1,2,4]-triazolo-[4,3-a][1,4]-diazepin-2-yl]-propane-1-carboxylic acid morpholide] | 850 | 
2 | O=C(CCc1cc2c(s1)-n1c(CCl)nnc1CN=C2c1ccccc1Cl)N1CCOCC1 [Example 24] | 1400 | 
3 | O=C(CCc1cc2c(s1)-n1c(nnc1C1CC1)CN=C2c1ccccc1Cl)N1CCOCC1 [Example 2] | 330 | 
4 | Cc1nnc2n1-c1sc(C(N)=O)cc1C(c1ccccc1Cl)=NC2 [Example 4, [4-(2-Chlorophenyl)-9-methyl-6H-thieno[3,2-f][1,2,4]triazolo-[4,3-a][1,4]diazepin-2-yl]-carboxylic acid amide] | 8300 | 
5 | CCCOc1nnc2n1-c1sc(CCC(=O)N3CCOCC3)cc1C(c1ccccc1Cl)=NC2 [Example 26] | 8100 | 
6 | Cc1nnc2n1-c1sc(CCC(=O)N(CCO)CCO)cc1C(c1ccccc1Cl)=NC2 [Example 21] | 2900 | 
7 | Cc1nnc2n1-c1sc(CC(=O)N3CCOCC3)cc1C(c1ccccc1Cl)=NC2 [Example 6, [4-(2-Chlorophenyl)-9-methyl-6H-thieno[3,2-f][1,2,4]triazolo-[4,3-a][1,4]-diazepin-2-yl]-methane carboxylic acid morpholide] | 1300 | 
8 | Cc1nnc2n1-c1ccc(Cl)cc1C(c1ccccc1Cl)=NC2 [Triazolam, reference compound] | 1400 | 
9 | Cc1nnc2n1-c1sc(CCC(=O)N(C)C)cc1C(c1ccccc1Cl)=NC2 [Example 14, 2-[4-(2-Chlorophenyl)-9-methyl-6H-thieno[3,2-f][1,2,4]-triazolo[4,3-a][1,4]diazepin-2-yl]-ethane-1-carboxylic acid dimethylamide] | 2200 | 
10 | Cc1nnc2n1-c1sc(CC(N)=O)cc1C(c1ccccc1Cl)=NC2 [Example 20] | 5300 | 
11 | CCN(CC)C(=O)CCc1cc2c(s1)-n1c(C)nnc1CN=C2c1ccccc1Cl [Example 5, 2-[4-(2-Chlorophenyl)-9-methyl-6H-thieno[3,2-f][1,2,4]-triazolo[4,3-a][1,4]diazepin-2-yl]-ethane-1-carboxylic acid diethylamide] | 720 | 700
12 | CCc1cc2c(s1)-n1c(C)nnc1CN=C2c1ccccc1Cl [Etizolam, reference compound] | 500 | 
13 | Cc1nnc2n1-c1sc(CCC(=O)NC(C)C)cc1C(c1ccccc1Cl)=NC2 [Example 13, 2-[4-(2-Chlorophenyl)-9-methyl-6H-thieno[3,2-f][1,2,4]-triazolo[4,3-a][1,4]diazepin-2-yl]-ethane-1-carboxylic acid isopropylamide] | 1540 | 
14 | CNC(=O)CCc1cc2c(s1)-n1c(C)nnc1CN=C2c1ccccc1Cl [Example 12, 2-[4-(2-Chlorophenyl)-9-methyl-6H-thieno[3,2-f][1,2,4]-triazolo[4,3-a][1,4]diazepin-2-yl]-ethane-1-carboxylic acid methylamide] | 350 | 
15 | Cc1nnc2n1-c1sc(CCC(=O)N3CCOCC3)cc1C(c1ccccc1Cl)=NC2 [Example 1, 2-[4-(2-Chlorophenyl)-9-methyl-6H-thieno[3,2-f][1,2,4]-triazolo[4,3-a][1,4]diazepin-2-yl]-ethane-1-carboxylic acid morpholide] | 170 | 170
16 | CCN(CC)C(=O)CCc1cc2c(s1)-n1c(nnc1C1CC1)CN=C2c1ccccc1Cl [Example 18, 2-[4-(2-Chlorophenyl)-9-cyclopropyl-6H-thieno[3,2-f][1,2,4]triazolo[4,3-a][1,4]diazepin-2-yl]-ethane-1-carboxylic acid diethylamide] | 800 | 
17 | Cc1nnc2n1-c1sc(CCC(=O)N3CCN(C)CC3)cc1C(c1ccccc1Cl)=NC2 [Example 17, 2-[4-(2-Chlorophenyl)-9-methyl-6H-thieno[3,2-f][1,2,4]-triazolo[4,3-a][1,4]diazepin-2-yl]-ethane-1-carboxylic acid N'-methyl-piperazide] | 900 | 
18 | Cc1nnc2n1-c1sc(CCC(=O)NCCO)cc1C(c1ccccc1Cl)=NC2 [Example 23] | 750 | 
19 | Cc1nnc2n1-c1sc(CCC(=O)N3CCOCC3)cc1C(c1ccccc1)=NC2 [Example 22, 2-[4-Phenyl-9-methyl-6H-thieno[3,2-f][1,2,4]triazolo-[4,3-a][1,4]diazepin-2-yl]-ethane-1-carboxylic acid morpholide] | 540 | 
20 | Cc1nnc2n1-c1sc(C(=O)N3CCOCC3)cc1C(c1ccccc1Cl)=NC2 [Example 3, [4-(2-Chlorophenyl)-9-methyl-6H-thieno[3,2-f][1,2,4]triazolo-[4,3-a][1,4]diazepin-2-yl]-carboxylic acid morpholide] | 710 | 
21 | Cc1nnc2n1-c1sc(CCC(=O)N3CCCC3)cc1C(c1ccccc1Cl)=NC2 [Example 15, 2-[4-(2-Chlorophenyl)-9-methyl-6H-thieno[3,2-f][1,2,4]-triazolo[4,3-a][1,4]diazepin-2-yl]-ethane-1-carboxylic acid pyrrolidide] | 380 | 
22 | O=C(CCc1cc2c(s1)-n1c(Br)nnc1CN=C2c1ccccc1Cl)N1CCOCC1 [Example 9] | 470 | 
23 | O=C(CCc1cc2c(s1)-n1cnnc1CN=C2c1ccccc1Cl)N1CCOCC1 [Example 19, 2-[4-(2-chlorophenyl)-6H-thieno[3,2-f][1,2,4]-triazolo[4,3-a][1,4]-diazepin-2-yl]-ethane-1-carboxylic acid morpholide] | 8200 | 
24 | COc1nnc2n1-c1sc(CCC(=O)N3CCOCC3)cc1C(c1ccccc1Cl)=NC2 [Example 10, 2-[4(2-Chlorophenyl)-9-methoxy-6H-thieno[3,2-f][1,2,4]-triazolo-[4,3-a][1,4]-diazepin-2-yl]-ethane-1-carboxylic acid morpholide] | 200 | 
25 | Cc1nnc2n1-c1sc(CCCCC(=O)N3CCOCC3)cc1C(c1ccccc1Cl)=NC2 [Example 8] | 870 | 
26 | Cc1nnc2n1-c1sc(CCC(=O)N3CCCCC3)cc1C(c1ccccc1Cl)=NC2 [Example 16, 2-[4-(2-Chlorophenyl)-9-methyl-6H-thieno[3,2-f][1,2,4]-triazolo[4,3-a][1,4]diazepin-2-yl]-ethane-1-carboxylic acid piperidide] | 1330 | 
27 | Cc1nnc2n1-c1sc(Br)cc1C(c1ccccc1Cl)=NC2 [Brotizolam, reference compound] | 500 | 
